Columns and labels:
P388 [1] = assay: In vivo cytotoxicity against mouse P388 cells at 0.63 mg/kg relative to control; assay type: functional
P388 [2] = assay: In vivo cytotoxicity against mouse P388 cells at 1.25 mg/kg relative to control; assay type: functional

| Structure (SMILES) | T/C (P388 [1]) | T/C (P388 [2]) |
| --- | --- | --- |
| COC(=O)[C@]12OC[C@]34[C@H]([C@@H](O)[C@@H]1O)[C@@]1(C)C=C5OC(=O)C=C5[C@@H](C)[C@@H]1C[C@H]3OC(=O)[C@H](O)[C@@H]24 [DEACETYLSERGEOLIDE] | 150% | – |
| COC(=O)[C@]12OC[C@]34[C@H]([C@@H](O)[C@@H]1O)[C@@]1(C)C=C5OC(=O)C=C5[C@@H](C)[C@@H]1C[C@H]3OC(=O)[C@H](OC(C)=O)[C@@H]24 [SERGEOLIDE] | – | 169% |
